ChEMBL document CHEMBL5096178, “Synthesis and Biological Evaluation of Natural-Product-Inspired, Aminoalkyl-Substituted 1-Benzopyrans as Novel Antiplasmodial Agents” (J Med Chem, 2021)
pIC50: −log10 of the molar value.

What was measured:
Plasmodium falciparum = assay: Antiprotozoal activity against erythrocytic stage Plasmodium falciparum NF54 assessed as parasite growth inhibition incubated for 48 hrs by [3H]hypoxanthine incorporation assay; assay type: functional, organism-based
[1] = Selectivity index, ratio of IC50 for rat L6 cells to IC50 for Trypanosoma brucei rhodesiense STIB 900 bloodstream trypomastigote; assay type: toxicity; details: read-out: Ratio IC50
[2] = Selectivity index, ratio of IC50 for rat L6 cells to IC50 for Leishmania donovani MHOM/ET/67/L82 axenic amastigote; assay type: toxicity; details: read-out: Ratio IC50
Trypanosoma cruzi = assay: Antiprotozoal activity against Trypanosoma cruzi Tulahuen C4 intracellular amastigote infected in rat L6 cells assessed as parasite growth inhibition incubated for 96 hrs in presence of CPRG/Nonidet by photometry; assay type: functional, organism-based; details: Tulahuen C4, L6, 96 h
[3] = Selectivity index, ratio of IC50 for rat L6 cells to IC50 for erythrocytic stage Plasmodium falciparum NF54; assay type: toxicity; details: read-out: Ratio IC50
[4] = tested on: Trypanosoma brucei rhodesiense; assay: Antiprotozoal activity against Trypanosoma brucei rhodesiense STIB 900 bloodstream trypomastigote assessed as parasite growth inhibition incubated for 70 hrs by resazurin dye based assay; assay type: functional, organism-based; details: STIB 900, 70 h
[5] = Cytotoxicity against rat L6 cells assessed as cell growth inhibition incubated for 70 hrs by Alamar Blue staining based […]; assay type: toxicity
[6] = Selectivity index, ratio of IC50 for rat L6 cells to IC50 for Trypanosoma cruzi Tulahuen C4 intracellular amastigote infected in rat L6 cells; assay type: toxicity, cell-based; details: read-out: Ratio IC50
Leishmania donovani = assay: Antiprotozoal activity against Leishmania donovani MHOM/ET/67/L82 axenic amastigote assessed as parasite growth inhibition incubated for resazurin dye based fluorometry; assay type: functional, organism-based

With `CC1(C)CCc2cc(C(O)CNCCCc3ccccc3)c(O)cc2O1` (centres undefined) the pIC50 (Plasmodium falciparum) was 7.77, the selectivity ratio [1] was 5 and the selectivity ratio [2] was 0.7. For the same compound, the pIC50 (Trypanosoma cruzi) was 4.55, the selectivity ratio [3] was 1470 and the pIC50 [4] was 5.28. It also gave an IC50 at 70 h [5] of 25 µM, a selectivity ratio [6] of 0.9 and a pIC50 (Leishmania donovani) of 4.44.
Work on `CC1(C)CCc2c(ccc(CNCCc3ccccc3)c2O)O1` yielded a pIC50 (Plasmodium falciparum) of 8.00, a selectivity ratio [1] of 6 and a selectivity ratio [2] of 0.3. It also gave a pIC50 (Trypanosoma cruzi) of 4.28, a selectivity ratio [3] of 3600 and a pIC50 [4] of 5.19. For the same compound, the IC50 at 70 h [5] was 36 µM, the selectivity ratio [6] was 0.7 and the pIC50 (Leishmania donovani) was 3.85.
`CC1(C)CCc2cc(CNCCCc3ccccc3)c3c(c2O1)CCC(C)(C)O3` showed a pIC50 (Plasmodium falciparum) of 6.43, a selectivity ratio [1] of 3 and a selectivity ratio [2] of 0.2. The pIC50 (Trypanosoma cruzi) was 5.28, the selectivity ratio [3] was 7 and the pIC50 [4] was 6.08. It also gave an IC50 at 70 h [5] of 2.6 µM, a selectivity ratio [6] of 0.5 and a pIC50 (Leishmania donovani) of 4.96.
Work on `CC1(C)CCc2cc(CNCCc3ccccc3)c3c(c2O1)CCC(C)(C)O3` yielded a pIC50 (Plasmodium falciparum) of 6.62, a selectivity ratio [1] of 5 and a selectivity ratio [2] of 0.3. The pIC50 (Trypanosoma cruzi) was 5.04, the selectivity ratio [3] was 15 and the pIC50 [4] was 6.15. The IC50 at 70 h [5] was 3.5 µM, the selectivity ratio [6] was 0.4 and the pIC50 (Leishmania donovani) was 4.92.
`CC1(C)CCc2cc(CNCCc3ccccc3)c(O)cc2O1` gave a pIC50 (Plasmodium falciparum) of 7.09, a selectivity ratio [3] of 531 and an IC50 at 70 h [5] of 43 µM.
With `CC1(C)CCc2cc(CNCc3ccccc3)c(O)cc2O1` the pIC50 (Plasmodium falciparum) was 7.00, the selectivity ratio [3] was 222 and the IC50 at 70 h [5] was 22 µM.
Compound `CC1(C)C=Cc2cc(CNCCCCc3ccccc3)c(O)cc2O1` has a pIC50 (Plasmodium falciparum) of 7.10, a selectivity ratio [1] of 17 and a selectivity ratio [2] of 0.8. It also gave a pIC50 (Trypanosoma cruzi) of 4.77, a selectivity ratio [3] of 241 and a pIC50 [4] of 5.96. It also gave an IC50 at 70 h [5] of 19 µM, a selectivity ratio [6] of 1 and a pIC50 (Leishmania donovani) of 4.60.
`CC1(C)C=Cc2cc(CNCCCc3ccccc3)c(O)cc2O1` gave a pIC50 (Plasmodium falciparum) of 7.09, a selectivity ratio [1] of 28 and a selectivity ratio [2] of 0.7. For the same compound, the pIC50 (Trypanosoma cruzi) was 4.55, the selectivity ratio [3] was 346 and the pIC50 [4] was 6.00. For the same compound, the IC50 at 70 h [5] was 28 µM, the selectivity ratio [6] was 1 and the pIC50 (Leishmania donovani) was 4.37.
With `CC1(C)CCc2c(ccc(CNCc3ccccc3)c2O)O1` the pIC50 (Plasmodium falciparum) was 7.28, the selectivity ratio [1] was 3 and the selectivity ratio [2] was 1. For the same compound, the pIC50 (Trypanosoma cruzi) was 4.24, the selectivity ratio [3] was 1130 and the pIC50 [4] was 4.66. It also gave an IC50 at 70 h [5] of 60 µM, a selectivity ratio [6] of 1 and a pIC50 (Leishmania donovani) of 4.28.
For `CC1(C)CCc2cc(C(O)CNCc3ccccc3)c(O)cc2O1` (centres undefined), the pIC50 (Plasmodium falciparum) was 7.00, the selectivity ratio [1] was 7 and the selectivity ratio [2] was 0.9. It also gave a pIC50 (Trypanosoma cruzi) of 4.32, a selectivity ratio [3] of 460 and a pIC50 [4] of 5.19. The IC50 at 70 h [5] was 46 µM, the selectivity ratio [6] was 1 and the pIC50 (Leishmania donovani) was 4.27.
`CC1(C)CCc2cc(CNCc3ccccc3)c3c(c2O1)CCC(C)(C)O3` gave a pIC50 (Plasmodium falciparum) of 6.33, a selectivity ratio [1] of 4 and a selectivity ratio [2] of 0.4. The pIC50 (Trypanosoma cruzi) was 5.02, the selectivity ratio [3] was 12 and the pIC50 [4] was 5.85. It also gave an IC50 at 70 h [5] of 5.6 µM, a selectivity ratio [6] of 0.6 and a pIC50 (Leishmania donovani) of 4.89.
`CC1(C)C=Cc2cc(CNCCc3ccccc3)c(O)cc2O1` gave a pIC50 (Plasmodium falciparum) of 7.12, a selectivity ratio [1] of 69 and a selectivity ratio [2] of 0.4. It also gave a pIC50 (Trypanosoma cruzi) of 4.55, a selectivity ratio [3] of 605 and a pIC50 [4] of 6.17. It also gave an IC50 at 70 h [5] of 46 µM, a selectivity ratio [6] of 2 and a pIC50 (Leishmania donovani) of 3.98.
`CC1(C)C=Cc2cc(CNCc3ccccc3)c(O)cc2O1` gave a pIC50 (Plasmodium falciparum) of 6.80, a selectivity ratio [1] of 63 and a selectivity ratio [2] of 0.9. The pIC50 (Trypanosoma cruzi) was 3.27, the selectivity ratio [3] was 356 and the pIC50 [4] was 6.04. For the same compound, the IC50 at 70 h [5] was 57 µM, the selectivity ratio [6] was 0.1 and the pIC50 (Leishmania donovani) was 4.19.
Compound `CC1(C)CCc2cc(CNCCCCc3ccccc3)c(O)cc2O1` has a pIC50 (Plasmodium falciparum) of 7.15, a selectivity ratio [1] of 33 and a selectivity ratio [2] of 0.1. For the same compound, the pIC50 (Trypanosoma cruzi) was 4.89, the selectivity ratio [3] was 214 and the pIC50 [4] was 6.34. It also gave an IC50 at 70 h [5] of 15 µM, a selectivity ratio [6] of 1 and a pIC50 (Leishmania donovani) of 3.86.
